# Measurements reported in patent US8492371B2, “Compounds as cannabinoid receptor ligands” (priority 2009, dated 2013).
# Like-named read-outs stand apart in the source and are kept apart here.
# How the values were obtained:
# human CB2 receptors = target: T1, human CB2 receptors (Homo sapiens, UniProt P34972); experiment: Human CB2 radioligand binding assay ([3H]CP-55,940 competition)
# T1 construct: expressed in transfected cells; host or cells: HEK293
# Outline: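 Membranes from HEK293 cells stably expressing human CB2 (5 μg/well) incubated 90 min at 30 °C with 0.5 nM [3H]CP-55,940 and five concentrations of displacer (0.01 nM–10 μM) in pH 7.4 Tris/EDTA/MgCl2 buffer with fatty acid free BSA. Bound radioactivity counted after filtration; nonspecific binding defined with 10 μM unlabeled CP-55,940.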
# rat CB2 receptors = target: T2, rat CB2 receptors (Rattus norvegicus, UniProt Q9QZN9); experiment: Rat CB2 radioligand binding assay ([3H]CP-55,940 competition)
# T2 construct: expressed in transfected cells; host or cells: HEK293
# T2 sequence (Q9QZN9 1-360): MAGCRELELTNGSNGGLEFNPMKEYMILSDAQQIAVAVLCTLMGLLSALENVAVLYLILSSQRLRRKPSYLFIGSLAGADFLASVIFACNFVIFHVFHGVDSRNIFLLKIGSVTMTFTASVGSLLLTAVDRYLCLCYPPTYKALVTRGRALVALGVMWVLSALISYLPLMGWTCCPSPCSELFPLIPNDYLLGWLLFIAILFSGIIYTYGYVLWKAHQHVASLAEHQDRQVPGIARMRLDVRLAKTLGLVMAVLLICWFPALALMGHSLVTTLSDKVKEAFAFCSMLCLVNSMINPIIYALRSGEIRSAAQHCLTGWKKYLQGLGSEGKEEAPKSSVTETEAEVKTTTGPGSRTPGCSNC
# Outline: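 Membranes from HEK293 cells stably expressing rat CB2 (20 μg/well) incubated 45 min at 30 °C with 0.5 nM [3H]CP-55,940 and five competitor concentrations in Tris/EDTA/MgCl2 buffer with 0.5 mg/mL BSA, pH 7.4. Filtration and scintillation counting; nonspecific binding with 10 μM unlabeled CP-55,940.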
# [1] = HEK293 membranes, 0.5 nM [3H]CP-55,940, read-out: human CB2 Ki
# T1 sequence (P34972 whole entry): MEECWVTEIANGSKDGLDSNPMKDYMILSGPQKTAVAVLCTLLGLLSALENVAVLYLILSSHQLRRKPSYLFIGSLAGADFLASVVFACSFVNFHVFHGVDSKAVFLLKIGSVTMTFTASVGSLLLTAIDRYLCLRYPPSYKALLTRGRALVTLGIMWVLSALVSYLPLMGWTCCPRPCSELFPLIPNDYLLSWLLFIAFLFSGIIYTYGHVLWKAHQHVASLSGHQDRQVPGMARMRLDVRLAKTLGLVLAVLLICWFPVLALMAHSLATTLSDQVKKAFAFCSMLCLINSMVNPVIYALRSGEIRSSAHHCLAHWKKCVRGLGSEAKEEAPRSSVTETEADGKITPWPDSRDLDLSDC
SMILES,Ki (human CB2 receptors) [nM],Ki (rat CB2 receptors) [nM],Ki (human CB2 receptors; [1]) [nM]
"COCCOc1ccc(Br)cc1C(=O)/N=c1\cc(C(C)(C)C)n(C)n1C[C@H]1CCCO1 [Example 58, 5-bromo-N-{(3E)-5-tert-butyl-1-methyl-2-[(2R)-tetrahydrofuran-2-ylmethyl]-1,2-dihydro-3H-pyrazol-3-ylidene}-2-(2-methoxyethoxy)benzamide]",31,69,
"Cn1c(C(C)(C)C)c/c(=N\C(=O)c2cc(Br)ccc2OCCF)n1C[C@H]1CCCO1 [Example 59, 5-bromo-N-{(3E)-5-tert-butyl-1-methyl-2-[(2R)-tetrahydrofuran-2-ylmethyl]-1,2-dihydro-3H-pyrazol-3-ylidene}-2-(2-fluoroethoxy)benzamide]",28,27,
"Cn1c(C(C)(C)C)c/c(=N\C(=O)c2cc(Br)cc3c2OCC3)n1C[C@H]1CCCO1 [Example 60, 5-bromo-N-{(3E)-5-tert-butyl-1-methyl-2-[(2R)-tetrahydrofuran-2-ylmethyl]-1,2-dihydro-3H-pyrazol-3-ylidene}-2,3-dihydro-1-benzofuran-7-carboxamide]",66,46,
"COc1ccc(Cl)cc1C(=O)/N=c1\cc(C(C)(C)C)ccn1C[C@H]1CCCO1 [Example 61, N-[(2E)-4-tert-butyl-1-[(2R)-tetrahydrofuran-2-ylmethyl]pyridin-2(1H)-ylidene]-5-chloro-2-methoxybenzamide]",,13,103
"COc1ccc(C(F)(F)F)cc1C(=O)/N=c1\cc(C(C)(C)C)ccn1C[C@H]1CCCO1 [Example 62, N-[(2E)-4-tert-butyl-[(2R)-tetrahydrofuran-2-ylmethyl]pyridin-2(1H)-ylidene]-2-methoxy-5-(trifluoromethyl)benzamide]",20,4,
"COc1ccc(C(F)(F)F)cc1C(=O)/N=c1\cc(C(C)(C)C)n(C)n1CC1CCCCO1 (centres unmarked) [Example 63, N-[(3E)-5-tert-butyl-1-methyl-2-(tetrahydro-2H-pyran-2-ylmethyl)-1,2-dihydro-3H-pyrazol-3-ylidene]-2-methoxy-5-(trifluoromethyl)benzamide]",36,20,
"COc1ccc(C(F)(F)F)cc1C(=O)/N=c1\cc(C(C)(C)C)n(C)n1CC1CC[C@H](C)O1 (some centres unmarked) [Example 65, N-((3E)-5-tert-butyl-1-methyl-2-{[(55)-5-methyltetrahydrofuran-2-yl]methyl}-1,2-dihydro-3H-pyrazol-3-ylidene)-2-methoxy-5-(trifluoromethyl)benzamide]",65,5.7,
"COc1ccc(C(F)(F)F)cc1C(=O)/N=c1\oc(C(C)(C)C)cn1C[C@H]1CCCO1 [Example 66, N-[(2Z)-5-tert-butyl-3-[(2R)-tetrahydrofuran-2-ylmethyl]-1,3-oxazol-2(3 H)-ylidene]-2-methoxy-5-(trifluoromethyl)benzamide]",2.1,0.8,
"CC1CCC(NC(=O)/N=c2\sc(C(C)(C)C)nn2C[C@H]2CCCO2)CC1 (stereo partly drawn) [Example 67, N-[(2Z)-5-tert-butyl-3-[(2R)-tetrahydrofuran-2-ylmethyl]-1,3,4-thiadiazol-2(3 H)-ylidene]-N′-(4-methylcyclohexyl)urea]",16,10,
"CC(C)(C)c1nn(C[C@H]2CCCO2)/c(=N/C(=O)NC2CCCc3ccccc32)s1 (stereo partly drawn) [Example 73, N-[(2Z)-5-tert-butyl-3-[(2R)-tetrahydrofuran-2-ylmethyl]-1,3,4-thiadiazol-2(3 H)-ylidene]-N′-1,2,3,4-tetrahydronaphthalen-1-ylurea]",45,8.2,
"CC(CCc1ccccc1)NC(=O)/N=c1\sc(C(C)(C)C)nn1C[C@H]1CCCO1 (stereo partly drawn) [Example 79, N-[(2Z)-5-tert-butyl-3-[(2R)-tetrahydrofuran-2-ylmethyl]-1,3,4-thiadiazol-2(3 H)-ylidene]-N′-(1-methyl-3-phenylpropyl)urea]",32,11,
"CNC(=O)[C@@H](NC(=O)/N=c1\sc(C(C)(C)C)nn1C[C@H]1CCCO1)C(C)(C)C [Example 82, N^2-({[(2Z)-5-tert-butyl-3-[(2R)-tetrahydrofuran-2-ylmethyl]-1,3,4-thiadiazol-2(3H)-ylidene]amino}carbonyl)-N^1,3-dimethyl-L-valinamide]",3.8,10,
"CC(C)[C@@H](CO)NC(=O)/N=c1\sc(C(C)(C)C)nn1C[C@H]1CCCO1 [Example 84, N-[(2Z)-5-tert-butyl-3-[(2R)-tetrahydrofuran-2-ylmethyl]-1,3,4-thiadiazol-2(3 H)-ylidene]-N′-[(1S)-1-(hydroxymethyl)-2-methylpropyl]urea]",199,73,
"COc1ccc(C(F)(F)F)cc1C(=O)/N=c1\cc(C(C)(C)C)n(C)n1CC1CCOC1 (centres unmarked) [Example 85, N-[(3E)-5-tert-butyl-1-methyl-2-(tetrahydrofuran-3-ylmethyl)-1,2-dihydro-3H-pyrazol-3-ylidene]-2-methoxy-5-(trifluoromethyl)benzamide]",87,13,
Cc1ccc(C(F)(F)F)cc1C(=O)/N=c1\cc(C(C)(C)C)n(C)n1C[C@H]1CCCO1 [Example 86],11,3.3,
"Cn1c(C(C)(C)C)c/c(=N\C(=O)c2cc(C(F)(F)F)ccc2Br)n1C[C@H]1CCCO1 [Example 88, 2-bromo-N-{(3E)-5-tert-butyl-1-methyl-2-[(2R)-tetrahydrofuran-2-ylmethyl]-1,2-dihydro-3H-pyrazol-3-ylidene}-5-(trifluoromethyl)benzamide]",20,5.4,
"COC/C=C/c1ccc(C(F)(F)F)cc1C(=O)/N=c1\cc(C(C)(C)C)n(C)n1C[C@H]1CCCO1 [Example 89, N-{(3E)-5-tert-butyl-1-methyl-2-[(2R)-tetrahydrofuran-2-ylmethyl]-1,2-dihydro-3H-pyrazol-3-ylidene}-2-[(1E)-3-methoxyprop-1-enyl]-5-(trifluoromethyl)benzamide]",9.8,5.8,
"COCCCc1ccc(C(F)(F)F)cc1C(=O)/N=c1\cc(C(C)(C)C)n(C)n1C[C@H]1CCCO1 [Example 90, N-{(3E)-5-tert-butyl-1-methyl-2-[(2R)-tetrahydrofuran-2-ylmethyl]-1,2-dihydro-3H-pyrazol-3-ylidene}-2-(3-methoxypropyl)-5-(trifluoromethyl)benzamide]",3.5,3,
"COc1ccc(Cl)cc1C(=O)/N=c1\sc(C(C)(C)C)nn1C[C@H]1COC(=O)N1 [Example 91, N-[(2Z)-5-tert-butyl-3-{[(4S)-2-oxo-1,3-oxazolidin-4-yl]methyl}-1,3,4-thiadiazol-2(3H)-ylidene]-5-chloro-2-methoxybenzamide]",,30,203
"CC(C)=CCOc1ccc(C(F)(F)F)cc1C(=O)/N=c1\cc(C(C)(C)C)n(C)n1C[C@H]1CCCO1 [Example 93, N-{(3E)-5-tert-butyl-1-methyl-2-[(2R)-tetrahydrofuran-2-ylmethyl]-1,2-dihydro-3H-pyrazol-3-ylidene}-2-[(3-methylbut-2-enyl)oxy]-5-(trifluoromethyl)benzamide]",17,15,
"Cn1c(C(C)(C)C)c/c(=N\C(=O)c2cc(C(F)(F)F)ccc2OCCC2(O)CCCC2)n1C[C@H]1CCCO1 [Example 94, N-{(3E)-5-tert-butyl-1-methyl-2-[(2R)-tetrahydrofuran-2-ylmethyl]-1,2-dihydro-3H-pyrazol-3-ylidene}-2-[2-(1-hydroxycyclopentyl)ethoxy]-5-(trifluoromethyl)benzamide]",2.6,3.3,
"Cn1c(C(C)(C)C)c/c(=N\C(=O)c2cc(F)cc(C(F)(F)F)c2)n1C[C@H]1CCCO1 [Example 96, N-{(3E)-5-tert-butyl-1-methyl-2-[(2R)-tetrahydrofuran-2-ylmethyl]-1,2-dihydro-3H-pyrazol-3-ylidene}-3-fluoro-5-(trifluoromethyl)benzamide]",13,3.7,
"CN1CC[C@H](Oc2ccc(C(F)(F)F)cc2C(=O)/N=c2\sc(C(C)(C)C)nn2C[C@H]2CCCO2)C1 [Example 97, N-[(2Z)-5-tert-butyl-3-[(2R)-tetrahydrofuran-2-ylmethyl]-1,3,4-thiadiazol-2(3 H)-ylidene]-2-{[(3S)-1-methylpyrrolidin-3-yl]oxy}-5-(trifluoromethyl)benazmide]",63,46,
"CN1CC[C@H](Oc2ccc(C(F)(F)F)cc2C(=O)/N=c2\oc(C(C)(C)C)cn2C[C@H]2CCCO2)C1 [Example 98, N-[(2Z)-5-tert-butyl-3-[(2R)-tetrahydrofuran-2-ylmethyl]-1,3-oxazol-2(3 H)-ylidene]-2-{[(3S)-1-methylpyrrolidin-3-yl]oxy}-5-(trifluoromethyl)benzamide]",,88,261
"C/C=C/c1ccc(C(F)(F)F)cc1C(=O)/N=c1\cc(C(C)(C)C)n(C)n1C[C@H]1CCCO1 [Example 99, N-{(3E)-5-tert-butyl-1-methyl-2-[(2R)-tetrahydrofuran-2-ylmethyl]-1,2-dihydro-3H-pyrazol-3-ylidene}-2-[(1E)-prop-1-enyl]-5-(trifluoromethyl)benazmide]",12,3.5,
